Measured values taken from PMC5377466 (Scientific Reports, 2014).
Values belong to the molecule of their own block, whether it stands above or below them.

Key:
CYP3A4 = CYP3A4 (Homo sapiens, UniProt P08684); assay: Vivid CYP450 screening kit, recombinant CYP 3A4 activity; type: biochemical; conditions: recombinant CYP3A4 BACULOSOMES, probe Vivid BOMR
P-gp = P-gp (Homo sapiens, UniProt P08183); assay: P-gp mediated transport of rhodamine 123; type: cell-based; conditions: LS 180 cells, 4-h incubation
Chain of P-gp (P08183 whole entry): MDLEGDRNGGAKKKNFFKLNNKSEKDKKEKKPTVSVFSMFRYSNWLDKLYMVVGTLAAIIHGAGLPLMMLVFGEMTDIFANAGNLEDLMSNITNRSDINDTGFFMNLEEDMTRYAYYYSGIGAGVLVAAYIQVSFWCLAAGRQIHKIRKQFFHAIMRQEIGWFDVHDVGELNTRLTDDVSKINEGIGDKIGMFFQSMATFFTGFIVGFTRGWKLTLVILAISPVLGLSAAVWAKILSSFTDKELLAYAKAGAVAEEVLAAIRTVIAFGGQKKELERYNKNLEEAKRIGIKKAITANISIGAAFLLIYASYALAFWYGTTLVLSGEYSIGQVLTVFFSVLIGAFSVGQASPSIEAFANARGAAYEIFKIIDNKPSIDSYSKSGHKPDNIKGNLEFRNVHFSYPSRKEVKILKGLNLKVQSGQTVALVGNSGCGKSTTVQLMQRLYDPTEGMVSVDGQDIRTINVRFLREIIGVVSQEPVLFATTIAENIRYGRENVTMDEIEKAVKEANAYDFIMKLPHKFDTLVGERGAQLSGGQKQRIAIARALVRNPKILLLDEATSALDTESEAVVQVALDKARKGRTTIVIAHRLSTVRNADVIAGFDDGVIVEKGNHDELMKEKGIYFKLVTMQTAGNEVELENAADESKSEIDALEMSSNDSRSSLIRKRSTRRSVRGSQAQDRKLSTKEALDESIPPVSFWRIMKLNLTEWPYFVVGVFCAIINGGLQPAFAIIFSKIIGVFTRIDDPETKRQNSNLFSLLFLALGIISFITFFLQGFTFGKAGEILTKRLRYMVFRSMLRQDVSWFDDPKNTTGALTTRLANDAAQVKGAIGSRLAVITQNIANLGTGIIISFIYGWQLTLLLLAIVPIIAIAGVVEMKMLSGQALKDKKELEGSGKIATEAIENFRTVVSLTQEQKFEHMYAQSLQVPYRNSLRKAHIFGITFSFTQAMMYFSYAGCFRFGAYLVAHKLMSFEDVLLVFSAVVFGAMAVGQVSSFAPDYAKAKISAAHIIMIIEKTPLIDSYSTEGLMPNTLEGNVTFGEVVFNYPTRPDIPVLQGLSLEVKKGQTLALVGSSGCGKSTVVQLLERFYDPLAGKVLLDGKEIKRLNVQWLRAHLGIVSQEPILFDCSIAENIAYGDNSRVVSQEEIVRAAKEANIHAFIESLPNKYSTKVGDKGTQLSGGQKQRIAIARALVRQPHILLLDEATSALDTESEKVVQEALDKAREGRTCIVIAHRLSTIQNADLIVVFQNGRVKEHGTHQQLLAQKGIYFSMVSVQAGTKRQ

[1] = Pharmacokinetics of oral EVL in rats without and with coadministered curcumin; type: in vivo; conditions: for AUC(0-t): male, Sprague-Dawley, rat, whole blood, po, 0.5 mg/kg, AUC0-540, area under the blood concentration-time curve from 0 to 540 min
[2] = cited from earlier work
[3] = EVL 0.5 mg/kg + curcumin 50 mg/kg
[4] = EVL 0.5 mg/kg + curcumin 100 mg/kg

Chain of CYP3A4 (P08684 whole entry): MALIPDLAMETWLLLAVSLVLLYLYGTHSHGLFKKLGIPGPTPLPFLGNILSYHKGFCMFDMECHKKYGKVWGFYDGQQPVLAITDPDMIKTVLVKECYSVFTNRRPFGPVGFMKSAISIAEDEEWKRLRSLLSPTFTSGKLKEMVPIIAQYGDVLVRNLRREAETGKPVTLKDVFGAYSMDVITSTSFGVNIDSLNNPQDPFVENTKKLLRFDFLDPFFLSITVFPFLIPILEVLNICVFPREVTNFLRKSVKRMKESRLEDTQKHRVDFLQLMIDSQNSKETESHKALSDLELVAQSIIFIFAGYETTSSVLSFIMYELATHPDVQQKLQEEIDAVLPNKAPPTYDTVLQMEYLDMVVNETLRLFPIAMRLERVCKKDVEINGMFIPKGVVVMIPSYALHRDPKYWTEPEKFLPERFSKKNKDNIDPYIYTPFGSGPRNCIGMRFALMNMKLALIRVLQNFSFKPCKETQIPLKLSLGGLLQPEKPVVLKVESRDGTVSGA

- inhibition at 30 min, 5 µM (CYP3A4): 21%
- inhibition at 30 min, 10 µM (CYP3A4): 53%
Structure (SMILES): COc1cc(/C=C/C(O)=C/C(=O)/C=C/c2ccc(O)cc2)ccc1O [demethoxycurcumin]

- inhibition at 30 min, 5 µM (CYP3A4): 93%
- inhibition at 30 min, 10 µM (CYP3A4): 90%
- Decrease of the efflux function of P-gp (rhodamine 123 accumulation) (P-gp; 25 μM): 13.2%
- Decrease of the efflux function of P-gp (rhodamine 123 accumulation) (P-gp; 50 μM): 16.7%
- Decrease of the efflux function of P-gp (rhodamine 123 accumulation) (P-gp; 100 μM): 172.9%
- Effect on the MRT of EVL by coadministered curcumin ([1]; curcumin 50 mg/kg oral with EVL 0.5 mg/kg): not affected
Structure (SMILES): COc1cc(/C=C/C(=O)CC(=O)/C=C/c2ccc(O)c(OC)c2)ccc1O [curcumin, Diferuloylmethane]

- inhibition at 30 min, 0.5 µM (CYP3A4): 10%
- inhibition at 30 min, 1 µM (CYP3A4): 10%
Structure (SMILES): O=C(/C=C/c1ccc(O)cc1)CC(=O)/C=C/c1ccc(O)cc1 [bis-demethoxycurcumin]

- Change of AUC0-540 versus EVL alone [1, 3]: −70.6%
- Change of Cmax versus EVL alone [1, 3]: −76.7%
- Change of AUC0-540 versus EVL alone [1, 4]: −71.5%
- Change of Cmax versus EVL alone [1, 4]: −76.7%
- Change of MRT versus EVL alone [1, 4]: 35.3%
- AUC(0-t) ([1]; oral EVL 0.5 mg/kg + curcumin 50 mg/kg): 8.03 ng·h/mL
- AUC(0-t) ([1]; oral EVL 0.5 mg/kg + curcumin 100 mg/kg): 7.77 ng·h/mL
- AUC(0-t) ([1]; oral EVL 0.5 mg/kg alone): 27.3 ng·h/mL
Structure (SMILES): CO[C@H]1C[C@@H]2CC[C@@H](C)[C@@](O)(O2)C(=O)C(=O)N2CCCC[C@H]2C(=O)O[C@H]([C@H](C)C[C@@H]2CC[C@@H](OCCO)[C@H](OC)C2)CC(=O)[C@H](C)/C=C(\C)[C@@H](O)[C@@H](OC)C(=O)[C@H](C)C[C@H](C)/C=C/C=C/C=C/1C [EVL, Everolimus]
- Half-life [2]: 18 to 35 h
- Oral bioavailability [2]: 15–16%
- Time to peak concentration ([2]; oral): 0.5 to 4.0 h
